In US20230172914A1, “BIOMARKER-BASED THERAPEUTIC COMPOSITION” (WELLMARKER BIO CO., LTD., priority 2019, published 2023):
pIC50: −log10 of the molar value. Where a name gives a salt, the structure may show the parent alone.

Experiments:
KM12C (RONΔ160) [1] = test: MTS assay KM12C (Experimental Example 6); format: cell-based; conditions: Homo sapiens, 72 hours
Procedure: In MTS assay for Example 18 and Comparative Example 1, KM12C cell line was seeded at 1,000 cells per well into 96-well plates. After 24 hours, the cells were treated with various concentrations (0.000001 uM to 10 uM) of Example 18 and Comparative Example 1 in 100 ul of 10% FBS-MEM medium (Welgene) per well. Subsequently, the cells were incubated for 72 hours. Then, 20 μl of MTS solution (Promega) was added thereto, and incubation was performed for 2 hours. Then, the absorbance was measured at 490 nm. The IC50 values for Example 18 and Comparative Example 1 were calculated using GraphPad Prism™ 5 to investigate cytotoxicity.

KM12C (RONΔ160) [2] = test: Cell death-inducing ability, trypan blue exclusion, KM12C; format: cell-based, human; conditions: 48 hours
Procedure: (§1) The cell death-inducing ability of Example 18 and Comparative Example 1 was measured in KM12C with RON mutant (Δ160), a cetuximab-resistant cell line, and Colo320HSR cell line, a cell line not expressing RON. The two colon cancer cell lines were seeded, respectively, onto 60-mm plates at 2×10^5 cells. Then, after 24 hours, while performing medium exchange, the cells were subjected to treatment with the sample compounds at respective concentrations (1 μM, 5 μM) for 48 hours. After 48 hours, the cells and cell suspensions were collected (1,500 rpm, 3 minutes), and live cells and dead cells were quantitated (n=2) through trypan blue (15250-061, Gibco) exclusion assay.

Colo320HSR (RON-) = test: Cell death-inducing ability, trypan blue exclusion, Colo320HSR; format: cell-based; conditions: 48 hours
Procedure: as §1

KM12C cell line tumor = test: Efficacy in animal model transplanted with KM12C, 30 and 50 mpk (Experimental Example 11); format: in vivo, BALB/c nude mice; conditions: once a day for 2 weeks
Procedure: 5-Week-old female BALB/c nude mice were purchased and acclimatized for 1 week. Then, human-derived colon cancer cell line KM12C (1.5×10^6 cells/mice) was diluted in PBS, and injected subcutaneously (100 μl) into the right dorsal side of the mice. Comparative Examples 1 and Example 18 were orally administered when the tumor reached a size of about 100 mm^3. The drug was administered at 30 mpk and 50 mpk once a day for 2 weeks, and tumor size and body weight were measured twice a week. […] After completion of the drug administration, the experimental animals were euthanized, and then the tumors were extracted and weighed to perform comparative analysis.

[3] = test system: colon cancer patient tissue (active RON/RON mutant #1: Δ160); test: Efficacy in animal model transplanted with colon cancer patient tissue, 30 mpk; format: in vivo; conditions: 30 mpk for 4 weeks
Procedure: Example 18 and Comparative Example 1 were administered to an animal model transplanted with the same patient tissue (active RON/RON mutant #1: Δ160) cells as in the animal model transplanted with colon cancer patient tissue tumor cells at 30 mpk for 4 weeks. […] The lower pictures of FIG. 21 show tumors extracted from representative individuals of the respective groups.

RON enzyme = RON enzyme (Homo sapiens, UniProt Q04912); test: RON activity inhibition assay (ADP-Glo); format: biochemical; conditions: 50 uM ATP, G4Y1 peptide substrate
RON enzyme, sequence (Q04912 25-1400): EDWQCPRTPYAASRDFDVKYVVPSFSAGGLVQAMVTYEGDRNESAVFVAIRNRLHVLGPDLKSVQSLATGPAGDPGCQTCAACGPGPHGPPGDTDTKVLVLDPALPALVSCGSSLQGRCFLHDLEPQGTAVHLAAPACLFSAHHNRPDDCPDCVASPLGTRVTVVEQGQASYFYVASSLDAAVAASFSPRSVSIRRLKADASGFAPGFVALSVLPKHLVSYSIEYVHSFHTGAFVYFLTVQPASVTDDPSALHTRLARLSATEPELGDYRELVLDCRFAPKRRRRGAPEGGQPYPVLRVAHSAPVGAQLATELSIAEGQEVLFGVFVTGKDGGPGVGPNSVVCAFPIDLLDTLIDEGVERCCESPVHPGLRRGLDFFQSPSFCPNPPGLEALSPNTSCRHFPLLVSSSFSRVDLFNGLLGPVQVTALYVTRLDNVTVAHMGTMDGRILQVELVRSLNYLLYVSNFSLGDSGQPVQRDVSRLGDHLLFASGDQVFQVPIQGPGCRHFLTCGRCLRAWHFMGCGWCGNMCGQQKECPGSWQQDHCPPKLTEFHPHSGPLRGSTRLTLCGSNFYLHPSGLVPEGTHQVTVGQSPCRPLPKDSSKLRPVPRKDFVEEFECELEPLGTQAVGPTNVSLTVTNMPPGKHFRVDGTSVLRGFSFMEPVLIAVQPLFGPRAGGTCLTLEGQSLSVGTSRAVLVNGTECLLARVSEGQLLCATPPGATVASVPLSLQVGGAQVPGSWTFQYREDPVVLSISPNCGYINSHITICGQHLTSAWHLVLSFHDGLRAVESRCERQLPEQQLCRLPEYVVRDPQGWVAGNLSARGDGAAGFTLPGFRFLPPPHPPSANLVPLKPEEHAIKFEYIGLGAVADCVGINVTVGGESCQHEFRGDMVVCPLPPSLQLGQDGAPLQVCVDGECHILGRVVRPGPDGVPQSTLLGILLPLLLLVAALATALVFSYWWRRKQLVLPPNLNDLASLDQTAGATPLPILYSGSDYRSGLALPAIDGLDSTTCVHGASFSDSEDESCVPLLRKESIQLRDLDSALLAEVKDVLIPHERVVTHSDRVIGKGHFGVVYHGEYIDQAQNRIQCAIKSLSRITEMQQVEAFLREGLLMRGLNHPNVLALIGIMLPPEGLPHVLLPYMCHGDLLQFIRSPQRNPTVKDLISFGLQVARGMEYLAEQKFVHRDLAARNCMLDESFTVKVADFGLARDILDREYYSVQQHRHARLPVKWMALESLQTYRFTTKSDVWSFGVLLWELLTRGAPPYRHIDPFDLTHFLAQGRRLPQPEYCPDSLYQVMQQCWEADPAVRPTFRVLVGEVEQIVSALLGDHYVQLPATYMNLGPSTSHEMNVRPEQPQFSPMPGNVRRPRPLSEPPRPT
Procedure: Enzymatic reaction was allowed to proceed using 2 ng/uL of 250 uM G4Y1 peptide, which serves as a substrate for RON enzyme, and 50 uM ATP in assay buffer (40 mM Tris-HCl, pH 7.5, 20 mM MgCl2, 0.1 mg/mL bovine serum albumin, 50 uM DTT). The resultant was subjected to treatment with the compounds prepared in the examples and the comparative examples at various concentrations, and reaction was allowed to proceed at room temperature for 1 hour. Then, ADP-Glo™ Reagent and Kinase Detection Reagent were sequentially added thereto, and reaction was allowed to proceed at room temperature for 40 minutes and 30 minutes, respectively.
Subsequently, luminescence was measured using Wallaac Victor 2TM (PerkinElmer Life Sciences, 1420-042). Data were analyzed with the measured RLU values to verify activity of the RON inhibitors. The RLU value of a sample which was not treated with the compound was set as a 100% control, and the activity of the RON inhibitor was evaluated as a percentage of residual activity of the RON enzyme in the sample that was treated with the compound at the concentration to be tested.

[4] = test system: MKN45 cell line (cell line expressing active RON); test: Cell growth inhibition MTS assay on MKN45; format: cell-based; conditions: Homo sapiens, MKN-45, 48 hours, read-out: Growth inhibitory capacity on MKN45 cells, IC50
Procedure: MTS assay was performed to identify whether the compound according to the present invention has a cancer cell proliferation inhibitory effect through inhibition of extracellular signal-regulated kinase activity.
The following assay was performed on MKN45 cell line (cell line expressing active RON), a human gastric cancer cell line. The MKN45 cell line was dispensed at a concentration of 5,000 cells/well in a 96-well plate containing RPMI-1640 medium (Gibco, Invitrogen) containing 10% FBS, and then the plate was incubated for 24 hours at a condition of 5% CO2 and 37° C. Then, the respective wells were subjected to treatment with the compounds prepared in the examples, each of which was sequentially diluted from its high concentration of 10 μM. For a solvent control, the respective wells were subjected to treatment with dimethyl sulfoxide (DMSO) at the same concentrations (% (v/v)) to those used for the treatment with the compounds. Then, the respective cells were incubated for 48 hours.
In order to identify degree of viability of the cells, a mixture of MTS and phenazine methosulfate (PMS) provided in CellTiter 96 AQuous Non-Radioactive Cell Proliferation Assay Kit (Promega) was added to each cultured cell medium. Additional incubation was performed at a condition of 37° C. for 2 hours and 30 minutes. Then, absorbance was measured at 490 nm. […] In the following, A represents <10 nM, B represents 10 to 50 nM, and C represents >50 nM.

Row | Structure (SMILES) | pIC50 [4] | also measured
1 | CCOc1ccn(-c2ccc(F)cc2)c(=O)c1C(=O)Nc1ccc(Oc2ccnc(N)c2Cl)c(F)c1 [Comparative Example 1, N-{4-[(2-amino-3-chloro-4-pyridinyl)oxy]-3-fluorophenyl}-4-ethoxy-1-(4-fluorophenyl)-2-oxo-1,2-dihydro-3-pyridinecarboxamide, reference compound] |  | IC50 (KM12C (RONΔ160) [1]): 358 nM; Cell death, KM12C (RONΔ160) (KM12C (RONΔ160) [2]; 1 μM): 11.7; Cell death, KM12C (RONΔ160) (KM12C (RONΔ160) [2]; 5 μM): 21.1; Cell death, Colo320HSR (RON-) (Colo320HSR (RON-); 1 μM): 5.9; Cell death, Colo320HSR (RON-) (Colo320HSR (RON-); 5 μM): 8.2; TGI (%) (KM12C cell line tumor; 30 mg/kg oral): 82.4%; TGI (%) (KM12C cell line tumor; 50 mg/kg oral): 83.7%; tumor growth inhibition efficacy (KM12C cell line tumor; 30 mpk and 50 mpk oral): very high tumor growth inhibition efficacy; tumor growth inhibition efficacy [3]: about 18%
2 | CCOc1ccn(-c2ccc(F)cc2)c(=O)c1C(=O)Nc1ccc(Oc2ccnc3cc(-c4cn(C)cn4)sc23)c(F)c1 [Example 1, 4-ethoxy-N-(3-fluoro-4-(2-(1-methyl-1H-imidazol-4-yl)thieno[3,2-b]pyridine-7-yloxy)phenyl)-1-(4-fluorophenyl)-2-oxo-1,2-dihydropyridine-3-carboxamide] | > 8.00 | pIC50 (RON enzyme): 7.95
3 | CCOc1ccn(C)c(=O)c1C(=O)Nc1ccc(Oc2ccnc3cc(-c4cn(C)cn4)sc23)c(F)c1 [Example 2, 4-ethoxy-N-(3-fluoro-4-(2-(1-methyl-1H-imidazol-4-yl)thieno[3,2-b]pyridine-7-yloxy)phenyl)-1-methyl-2-oxo-1,2-dihydropyridine-3-carboxamide] | < 7.30 | 
4 | CCOc1ccn(-c2ccc(F)cc2)c(=O)c1C(=O)Nc1ccc(Oc2ccnc3cc(-c4nccn4C)sc23)c(F)c1 [Example 3, 4-ethoxy-N-(3-fluoro-4-(2-(1-methyl-1H-imidazol-2-yl)thieno[3,2-b]pyridine-7-yloxy)phenyl)-1-(4-fluorophenyl)-2-oxo-1,2-dihydropyridine-3-carboxamide] | 7.30 to 8.00 | 
5 | CCOc1ccn(-c2ccc(F)cc2)c(=O)c1C(=O)Nc1ccc(Oc2ccnc3cc(-c4cnn(C)c4)sc23)c(F)c1 [Example 4, 4-ethoxy-N-(3-fluoro-4-(2-(1-methyl-1H-pyrazol-4-yl)thieno[3,2-b]pyridine-7-yloxy)phenyl)-1-(4-fluorophenyl)-2-oxo-1,2-dihydropyridine-3-carboxamide] | 7.30 to 8.00 | 
6 | CCOc1ccn(-c2ccc(F)cc2)c(=O)c1C(=O)Nc1ccc(Oc2ccnc3cc(-c4ccccn4)sc23)c(F)c1 [Example 5, 4-ethoxy-N-(3-fluoro-4-(2-(pyridin-2-yl)thieno[3,2-b]pyridin-7-yloxy)phenyl)-1-(4-fluorophenyl)-2-oxo-1,2-dihydropyridine-3-carboxamide] | 7.30 to 8.00 | pIC50 (RON enzyme): 8.06
7 | CCOc1ccn(-c2ccc(F)cc2)c(=O)c1C(=O)Nc1ccc(Oc2ccnc3cc(-c4cccnc4)sc23)c(F)c1 [Example 6, 4-ethoxy-N-(3-fluoro-4-(2-(pyridin-3-yl)thieno[3,2-b]pyridin-7-yloxy)phenyl)-1-(4-fluorophenyl)-2-oxo-1,2-dihydropyridine-3-carboxamide] | 7.30 to 8.00 | 
8 | CCOc1ccn(-c2ccc(F)cc2)c(=O)c1C(=O)Nc1ccc(Oc2ccnc3cc(-c4nccs4)sc23)c(F)c1 [Example 7, 4-ethoxy-N-(3-fluoro-4-(2-(thiazol-2-yl)thieno[3,2-b]pyridin-7-yloxy)phenyl)-1-(4-fluorophenyl)-2-oxo-1,2-dihydropyridine-3-carboxamide] | < 7.30 | 
9 | CCOc1ccn(Cc2ccc(F)cc2)c(=O)c1C(=O)Nc1ccc(Oc2ccnc3cc(-c4cn(CC)cn4)sc23)c(F)c1 [Example 8, 4-ethoxy-N-(4-(2-(1-ethyl-1H-imidazol-4-yl)thieno[3,2-b]pyridin-7-yloxy)-3-fluorophenyl)-1-(4-fluorobenzyl)-2-oxo-1,2-dihydropyridine-3-carboxamide] | < 7.30 | 
10 | COCn1cnc(-c2cc3nccc(Oc4ccc(NC(=O)c5c(OC)ccn(-c6ccccc6)c5=O)cc4F)c3s2)c1 [Example 9, 4-methoxy-N-(3-fluoro-4-(2-(1-(methoxymethyl)-1H-imidazol-4-yl)thieno[3,2-b]pyridin-7-yloxy)phenyl)-1-phenyl-2-oxo-1,2-dihydropyridine-3-carboxamide] | 7.30 to 8.00 | 
11 | CCOc1ccn(-c2ccc(F)cc2)c(=O)c1C(=O)Nc1ccc(Oc2ccnc3cc(CN4CCNCC4)sc23)c(F)c1 [Example 10, 4-ethoxy-N-(3-fluoro-4-(2-(piperazin-1-ylmethyl)thieno[3,2-b]pyridin-7-yloxy)phenyl)-1-(4-fluorophenyl)-2-oxo-1,2-dihydropyridine-3-carboxamide hydrochloride] | < 7.30 | 
12 | CCOc1ccn(-c2ccc(F)cc2)c(=O)c1C(=O)Nc1ccc(Oc2ccnc3cc(CN4CCN(C)CC4)sc23)c(F)c1 [Example 11, 4-ethoxy-N-(3-fluoro-4-(2-((4-methylpiperazin-1-yl)methyl)thieno[3,2-b]pyridine-7-yloxy)phenyl)-1-(4-fluorophenyl)-2-oxo-1,2-dihydropyridine-3-carboxamide] | < 7.30 | 
